We go through seven compounds from patent US8822519B2, “Compound with agitation effect on peroxisome proliferator-activated receptor process for its preparation and use thereof” (Zhejiang Hisun Pharmaceutical Co., Ltd., priority 2008, dated 2014).

The target of one series is T1, PPARδ (Homo sapiens, UniProt Q03181).
T1 construct: expressed in transfected cells; host or cells: HepG2 (human hepatocarcinoma, ATCC)
T1 sequence (Q03181 1-441): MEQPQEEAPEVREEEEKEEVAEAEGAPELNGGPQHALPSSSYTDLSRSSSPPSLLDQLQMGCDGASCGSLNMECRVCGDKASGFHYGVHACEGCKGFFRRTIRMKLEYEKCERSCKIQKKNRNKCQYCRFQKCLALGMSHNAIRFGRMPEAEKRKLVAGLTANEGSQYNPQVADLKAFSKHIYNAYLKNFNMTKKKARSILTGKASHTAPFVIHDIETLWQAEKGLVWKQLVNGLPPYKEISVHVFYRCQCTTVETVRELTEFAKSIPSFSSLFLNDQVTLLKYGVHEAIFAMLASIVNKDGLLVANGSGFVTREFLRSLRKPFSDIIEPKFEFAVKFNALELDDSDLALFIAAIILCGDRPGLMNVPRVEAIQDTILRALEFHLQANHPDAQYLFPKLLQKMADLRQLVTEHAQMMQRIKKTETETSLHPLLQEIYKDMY
T1 sequence (P19793 1-462 partner): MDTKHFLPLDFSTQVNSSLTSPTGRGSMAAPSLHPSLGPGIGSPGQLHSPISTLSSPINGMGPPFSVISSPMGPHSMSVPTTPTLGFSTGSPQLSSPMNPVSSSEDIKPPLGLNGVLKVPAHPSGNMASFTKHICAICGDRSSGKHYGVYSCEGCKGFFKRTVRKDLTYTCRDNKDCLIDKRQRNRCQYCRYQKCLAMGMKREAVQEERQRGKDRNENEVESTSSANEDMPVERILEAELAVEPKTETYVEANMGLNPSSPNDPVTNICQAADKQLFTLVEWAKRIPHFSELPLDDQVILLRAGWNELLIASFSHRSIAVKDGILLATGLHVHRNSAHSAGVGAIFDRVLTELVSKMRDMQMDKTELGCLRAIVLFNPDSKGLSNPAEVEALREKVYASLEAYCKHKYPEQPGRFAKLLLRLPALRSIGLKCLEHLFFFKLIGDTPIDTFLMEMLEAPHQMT
The series is described as follows: In vitro screening of nuclear receptor agonist: luciferase reporter gene assay in HepG2 cells. It is filed as cell-based. To be noted: RXR/PPARδ luciferase reporter gene, 24 h treatment. The source says: Using a reporter gene protocol, the screening model for screening a nuclear receptor agonist in a living cell is designed on a basis of the principal that an activated nuclear receptor can activate transcription of its downstream gene. A reporter gene plasmid is constructed, in which the DNA binding sequence for the nuclear receptor (NRE) is inserted upstream of the luciferase gene, so that the expression of the luciferase gene is placed under the control of the nuclear receptor. Then, the reporter gene plasmid and the nuclear receptor are simultaneously transferred into a cell, and the nuclear receptor is activated when the nuclear receptor agonist is present in the cell culture medium. Then the activated receptor is able to induce the expression of the luciferase gene, while the amount of the luciferase can be determined through its luminous substrate. In this way, the intensity of activation by the compound on the nuclear receptor could be known by observing the luminescence intensity.
The specific operation is described as follows:
The experiment reagents: the compounds to be tested (20 mM, in DMSO, stored at −80° C.).
The hepatocarcinoma cell HepG2 (from ATCC, American Type Culture Collection) was cultured in DMEM medium supplemented with 10% heat-inactivated fetal bovine serum (FBS, Invitogen, Grand Island, N.Y., USA) in a T-75 culture bottle (Greiner, Germany) in a incubator at 37° C., the relative humidity of 100%, and 5% CO2. When the cell culture in the culture bottle reached 80-90% confluency, it was digested with 0.25% Trypsin (with EDTA) for 3 min and inoculated into a 96-well cell culture plate at an inoculating density of 2000 cells/100 μl/well.
In the next day, when the cells in the 96-well culture plate grew up to 50-80% confluency, cell transfection was performed. The cell co-transfection system comprised the FuGene6 transfection agent (Roche Molecular Biochemicals, Indianapolis, Ind., U.S.A.) and 60 ng DNA (long of hRXR, 10 ng of pCMV βGal, 10 ng of the nuclear receptor expression plasmid RXR/PPARδ, 30 ng of GFP fluorescence reporter gene plasmid, respectively).
The cell culture medium was discarded immediately at 24 hours post-transfection and replaced by 200 μl of a fresh DMEM medium containing the medicament to be tested (with 10% FBS treated by activated carbon).
24 h after treatment with the medicament, the cells were lysed with a lysis solution (Cell Culture Lysis buffer, Promega) and centrifuged, and the supernatant was collected. The supernatant was treated with a fluorescence detection kit (Promega) and counted by a fluorescence meter (Ascent Fluoroskan FL reader, Thermo Labsystems, Finland), and the relative intensity of the luciferase was determined. For assaying the β-galactosidase activity used in the experiment as the inner reference (the inner reference calibrating for the transfection efficiency), 50 μl of the supernatant was transferred into a fresh microplate and treated with the Promega kit and read at a wavelength of 405 nm from a microplate reader (Bio-tech Instruments Inc., Winooski, Vt., USA) (Sauerberg, P.; Olsen, G. S.; Jeppesen, L.; Mogensen, J. P. et al., J. Med. Chem., 2007, 50, 1495-1503).
The median effective concentration (EC50) of a sample is a concentration at which the sample has 50% pharmacological effect. This value is one of the important parameters for evaluating pharmacological effects of a compound. In the present screening process, the EC50 of a sample was calculated according to the activation of the receptor by the sample at six different concentrations.
In general terms: A reporter such as luciferase makes a cellular process visible.

Series [1] is described as follows: Pharmacokinetics: plasma concentration-time curve. It is filed as in vivo. To be noted: both sexes, rat, plasma, oral, SD rats, gastric lavage, 50, 10 and 2 mg/kg. Here is the method: The dosing volume was 10 ml/kg, and blood samples of 0.4-0.5 ml were taken from the vena orbitalis posterior of the waken animals at different time points post-gastric lavage and centrifuged at 5000 rpm for 10 min. 200 μL of plasma sample was precisely measured, then supplemented with 200 μL acetonitrile, vortexed to evenness, left stand for 5 min, and centrifuged (14000 rpm, 5 min). The supernatant was collected and then centrifuged again (14000 rpm, 5 min). The resulting supernatant was gathered and subjected to HPLC injection. Time points for blood sampling were respectively: 0, 0.5, 1, 2, 4, 6, 8, 10, 12, 24, 36, 48 and 72 h, and the peak area for each time point was the average of those obtained from 6 rats at the same time point. Plasma concentrations were calculated and the medicament concentration-time curve was plotted.

Another series can be described thus: Tissue distribution. It is filed as in vivo, SD rats. Here is the method: 18 of SD rats were fasting for 16 h with free access for water, assigned them into 3 groups with 6 animals/group with a female-to-male ratio of 1:1; they were dosed with HS060098 (10 mg/kg), then the animals were sacrificed at 1, 10, and 24 h after dosing, and the heart, liver, spleen, lung, kidney in each animal were removed rapidly. The tainted blood on the surface of the organ was washed off immediately with physiological saline. The tissue from the organ was dissected apart, washed thoroughly, blotted off, weighed, supplemented with physiological saline at 400 mg/ml, homogenized in an ice bath for 1 min, and centrifuged at 3750 rpm for 20 min. 400 μl of the supernatant was pipetted precisely, followed by addition of 40 μl of an inner standard (HS060001 used as the inner standard with a molar concentration of 5 mmol/L), diluted with 3 ml of purified water, vortexed to homogeneity, and loaded onto a column (SPE C18 column was firstly washed with 3 ml of purified water, and sequentially with 3 ml of 10% methanol for activation). The column was rinsed with 3 ml of purified water at 1 ml/min, and then eluted with 3 ml of a elutant (methanol: purified water=9:1). The eluate was collected and blow-dried under a nitrogen flow at 45° C. The residue was dissolved in 400 μl of acetonitrile and then a HPLC insert was placed and followed by injection of the sample.

The conditions of series [2]: clinical research, Oliver et al. 2001; cited from earlier work.
Where [3] appears, read: distribution in organs, SD rats, 10 mg/kg.

Structures are written as SMILES. Bounds are passed on as bounds.

The EC50 is the concentration at which the effect is half-maximal. By half-life is commonly meant how long it takes for the measured level to halve. One may read the bioavailability as dose-corrected exposure relative to a reference, in per cent.

At PPARδ, `Cc1cc(OC(c2ccccc2)c2nn(-c3ccc(C(F)(F)F)cc3)c(=O)n2C)ccc1OCC(=O)O` (stereo not drawn) [Compound A-1, 2-(2-methyl-4-(1-(3-(4-methyl-5-oxo-1-(4-trifluoromethyl-phenyl)-4,5-dihydrogen-1H-1,2,4-triazolyl))-benzyloxy)-phenoxy)-acetic acid] registered an EC50 of 468 nM. The same compound displayed a half-life in series [1] of 1560 to 1680 min. In addition, the bioavailability in series [1] (read-out: bioavailability) stood at 15%. In the series “Tissue distribution” (setting [3]), the Heart came out at 6%, the Kidney came out at 9%, the Liver came to 65% and the Lung worked out at 11%. This compound gave a Spleen in “Tissue distribution” (setting [3]) of 9%. Further, in “Tissue distribution” (in words), the tissue distribution result is on record as “distribute mainly in liver”.

`Cc1cc(SC(C)(C)C(=O)O)ccc1OC(c1ccccc1)c1nn(-c2ccc(C(F)(F)F)cc2)c(=O)n1C` (stereo not drawn) [Compound A-15, 2,2-dimethyl-2-(3-methyl-4-(1-(3-(4-methyl-5-oxo-1-(4-trifluoromethyl-phenyl)-4,5-dihydrogen-1H-1,2,4-triazolyl))-benzyloxy)-phenylthio)-acetic acid] returned an EC50 on PPARδ of 20 nM. That is a double-digit nanomolar value.

`Cc1cc(SC(c2ccccc2)c2nn(-c3ccc(C(F)(F)F)cc3)c(=O)n2C)ccc1OC(C)(C)C(=O)O` (stereo not drawn) [Compound A-16, 2,2-dimethyl-2-(2-methyl-4-(1-(3-(4-methyl-5-oxo-1-(4-trifluoromethyl-phenyl)-4,5-dihydrogen-1H-1,2,4-triazolyl))-benzylthio)-phenoxy)-acetic acid] came in with an EC50 on PPARδ of 1 nM.

Take `CCCCn1c(C(Oc2ccc(SCC(=O)O)cc2C)c2ccccc2)nn(-c2ccc(C(F)(F)F)cc2)c1=O` (stereo not drawn) [Compound A-17, 2-(3-methyl-4-(1-(3-(4-n-butyl-5-oxo-1-(4-trifluoromethyl-phenyl)-4,5-dihydrogen-1H-1,2,4-triazolyl))-benzyloxy)-phenylthio)-acetic acid]: the EC50 on PPARδ is < 1 nM.

`CCCCn1c(C(Sc2ccc(OC(C)(C)C(=O)O)c(C)c2)c2ccccc2)nn(-c2ccc(C(F)(F)F)cc2)c1=O` (stereo not drawn) [Compound A-18]: the EC50 at PPARδ is < 1 nM.

On to `CCCCn1c(C(Sc2cc(C)c(OCC(=O)O)cc2C)c2ccccc2)nn(-c2ccc(C(F)(F)F)cc2)c1=O` (stereo not drawn) [Compound A-19, 2-(2,5-dimethyl-4-(1-(3-(4-n-butyl-5-oxo-1-(4-trifluoromethyl-phenyl)-4,5-dihydrogen-1H-1,2,4-triazolyl))-benzylthio)-phenoxy)-acetic acid], for which, at PPARδ, the EC50 is < 1 nM.

`Cc1cc(SCc2sc(-c3ccc(C(F)(F)F)cc3)nc2C)ccc1OCC(=O)O` [GW501516]: in series [2], the “decrease the level of insulin” value is “up to 48%”, the “decrease the level of triglyceride (TG)” value is on record as “up to 56%”, the “increase the level of high density lipoprotein (HDL) cholesterol” value is “up to 80%” and the “lower the level of low density lipoprotein (LDL) cholesterol” value is on record as “up to 29%”.
